Read-outs that look alike come from different tables or passages of the source.

Among the data in patent publication EP2998294A1, “Naphthyl sulfonamide phenyl derivatives as KEAP-1 modulators for the treatment of diabetes, obesity, dyslipidemia and related disorders” (SANOFI, priority 2014, dated 2016) are IC50 values, retold here.

In this experiment the target is T1, human Keap1 kelch domain (amino acids Ala321-Thr609) (Homo sapiens, UniProt Q14145).
T1 construct: human Keap1 kelch domain (amino acids Ala321-Thr609)
Nature of the experiment: Keap1-Nrf2 peptide binding assay (fluorescence polarisation). To be noted: binding of Keap1 kelch domain (20 nM) to fluorescently labeled Nrf2 peptide (50 nM). The procedure:
A fluorescence polarisation assay was used to measure binding of the human Keap1 kelch domain (amino acids Ala321-Thr609) to a fluorescently labeled peptide containing a Keap1 binding site of human Nrf2 (Alexa633-AFFAQLQLDEETGEFL; JPT Technologies, Berlin, Germany). Two microliters of test compound in reaction buffer (phosphate-buffered saline, 2 mM DL-dithiothreitol, 0.015 % (v/v) Brij-35) containing 6 % (v/v) DMSO were mixed with two microliters of the Keap1 kelch domain in reaction buffer in a black 384-well small volume microtiter plate and incubated at ambient temperature for 15 minutes. Thereafter, two microliters were added of the fluorescently labeled Nrf2 peptide in reaction buffer, and the mixture was incubated for a further 30 minutes at ambient temperature. Final concentrations of the Keap1 kelch domain and the fluorescently labeled Nrf2 peptide were 20 nM and 50 nM, respectively.
Fluorescence polarization (FP) was measured at excitation and emission wavelengths of 635 nm and 660 nm, respectively. Positive controls for binding (two microliters of reaction buffer containing 6 % (v/v) DMSO instead of test compound in the same buffer) and negative controls (as positive controls, but without Keap1 kelch domain) were included on each microtiter plate. Data were expressed as percent-inhibition values: percentinhibition = 100⋅(1-(|FPcompound-FPnegative controle|)/(|FPpositive controle-FPnegative controle|)) [formula]
IC50 values were determined by testing different compound concentrations and fitting the resulting percent-inhibition values to the following equation using XLFit4: percentinhibition = A + (B-A)/(1 + (((IC50)/([Compound])))^D) [formula]
Parameter A was set to zero, pre-fit values for parameters B and D were set to 100 and 1, respectively.

T1 sequence (Q14145 321-609): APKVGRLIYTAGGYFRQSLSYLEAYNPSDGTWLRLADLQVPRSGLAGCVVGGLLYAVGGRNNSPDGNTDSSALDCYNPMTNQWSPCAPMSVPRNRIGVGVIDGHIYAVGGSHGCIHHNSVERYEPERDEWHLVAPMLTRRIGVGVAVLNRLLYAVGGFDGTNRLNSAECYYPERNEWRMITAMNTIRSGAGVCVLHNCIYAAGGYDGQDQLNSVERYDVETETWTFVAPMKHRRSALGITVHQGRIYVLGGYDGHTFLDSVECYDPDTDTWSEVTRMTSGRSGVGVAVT

In turn, `O=C(O)c1cccc(-c2ccc(NS(=O)(=O)c3ccc(Cl)c(C(F)(F)F)c3)c3ccccc23)c1` [Example 37, [4-[[4-chloro-3-(trifluoromethyl)phenyl]sulfonylamino]-1-naphthyl]benzoic acid] had an IC50 of 4 µM.
As for `Cc1nc(C)c(S(=O)(=O)Nc2ccc(-c3cc(C(=O)O)ccc3F)c3ccccc23)s1` [Example 80, 3-[4-[(2,4-dimethylthiazol-5-yl)sulfonylamino]-1-naphthyl]-4-fluorobenzoic acid], under “read-out: IC50”, the IC50 was 1.9 µM.
Turning to `O=C(O)c1cccc(-c2ccc(NS(=O)(=O)c3ccc4[nH]c(=O)sc4c3)c3ccccc23)c1` [Example 29, 3-[4-[(2-oxo-3H-1,3-benzothiazol-6-yl)sulfonylamino]-1-naphthyl]benzoic acid], where the note is “read-out: IC50”, the concentration for half-maximal inhibition (IC50) was 5.1 µM.
Same read-out and setting: for `CCCn1ncc(S(=O)(=O)Nc2ccc(-c3cc(C(=O)O)ccc3F)c3ccccc23)c1C` [Example 72, 4-fluoro-3-[4-[(5-methyl-1-propyl-pyrazol-4-yl)sulfonylamino]-1-naphthyl]benzoic acid] the value was 1.4 µM.
With `O=C(O)c1cccc(-c2ccc(NS(=O)(=O)c3cc(Cl)c(F)cc3F)c3ccccc23)c1` [Example 40, 3-[4-[(5-chloro-2,4-difluorophenyl)sulfonylamino]-1-naphthyl]benzoic acid], the concentration for half-maximal inhibition (IC50) turned out to be 4.4 µM.
`Cc1nc(-c2ccccc2)sc1S(=O)(=O)Nc1ccc(-c2cccc(C(=O)O)c2)c2ccccc12` [Example 39, 3-[4-[(4-methyl-2-phenyl-thiazol-5-yl)sulfonylamino]-1-naphthyl]benzoic acid]: where the note is “read-out: IC50”, the IC50 turned out to be 2.8 µM.
The molecule `O=C(O)c1ccc(F)c(-c2ccc(NS(=O)(=O)c3cc(F)cc(F)c3Cl)c3ccccc23)c1` [Example 92, 3-[4-[(2-chloro-3,5-difluorophenyl)sulfonylamino]-1-naphthyl]-4-fluorobenzoic acid] gave a concentration for half-maximal inhibition (IC50) of 5.3 µM.
Take `Cc1nn(-c2ccccc2)c(C)c1S(=O)(=O)Nc1ccc(-c2cc(C(=O)O)ccc2F)c2ccccc12` [Example 86, 3-[4-[(3,5-dimethyl-1-phenyl-pyrazol-4-yl)sulfonylamino]-1-naphthyl]-4-fluorobenzoic acid]: the half-maximal inhibitory concentration (IC50) (read-out: IC50) was 1.5 µM.
Still for that read-out and setting: with `Cc1cc(C)c(C)c(S(=O)(=O)Nc2ccc(-c3cccc(C(=O)O)c3O)c3ccccc23)c1C` [Example 10, 2-hydroxy-3-[4-[(2,3,5,6-tetramethylphenyl)sulfonylamino]-1-naphthyl]benzoic acid] the figure was 2.5 µM.
On the same count and under the same terms, for `Cc1nn(C)c(C)c1S(=O)(=O)Nc1ccc(-c2cc(C(=O)O)ccc2F)c2ccccc12` [Example 79, 4-fluoro-3-[4-[(1,3,5-trimethylpyrazol-4-yl)sulfonylamino]-1-naphthyl]benzoic acid] the value was 0.4 µM.
`Cc1ccc(Cl)cc1S(=O)(=O)Nc1ccc(-c2cccc(C(=O)O)c2)c2ccccc12` [Example 41, 3-[4-[(5-chloro-2-methylphenyl)sulfonylamino]-1-naphthyl]benzoic acid] showed an IC50 of 1.4 µM.
`Cn1cc(S(=O)(=O)Nc2ccc(-c3cc(C(=O)O)ccc3F)c3ccccc23)c(C(F)(F)F)n1` [Example 78, 4-fluoro-3-[4-[[1-methyl-3-(trifluoromethyl)pyrazol-4-yl]sulfonylamino]-1-naphthyl]benzoic acid]: the IC50 (read-out: IC50) came to 9.7 µM.
The same measure, in the same setting: for `COc1ccc(S(=O)(=O)Nc2ccc(-c3cc(C(=O)O)ccc3F)c3ccccc23)c(OC)c1` [Example 83, 3-[4-[(2,4-dimethoxyphenyl)sulfonylamino]-1-naphthyl]-4-fluoro-benzoic acid] the value was 2.2 µM.
On the same count and under the same terms, with `CCCCn1cc(S(=O)(=O)Nc2ccc(-c3cccc(C(=O)O)c3)c3ccccc23)c(C)n1` [Example 62, 3-[4-[(1-butyl-3-methyl-pyrazol-4-yl)sulfonylamino]-1-naphthyl]benzoic acid] the figure was 0.7 µM.
`O=C(O)c1cccc(-c2ccc(NS(=O)(=O)c3cc(F)cc(F)c3F)c3ccccc23)c1` [Example 42, 3-[4-[(2,3,5-trifluorophenyl)sulfonylamino]-1-naphthyl]benzoic acid]: the IC50 came out at 6.4 µM.
With `Cc1c(S(=O)(=O)Nc2ccc(-c3cccc(C(=O)O)c3)c3ccccc23)sc2ccc(Cl)cc12` [Example 17, 3-[4-[(5-chloro-3-methyl-benzothiophen-2-yl)sulfonylamino]-1-naphthyl]benzoic acid], the half-inhibitory concentration (IC50) (read-out: IC50) is 1.6 µM.
Take `Cc1c(S(=O)(=O)Nc2ccc(-c3cc(C(=O)O)ccc3F)c3ccccc23)cnn1-c1ccccc1` [Example 77, 4-fluoro-3-[4-[(5-methyl-1-phenyl-pyrazol-4-yl)sulfonylamino]-1-naphthyl]benzoic acid]: the concentration for half-maximal inhibition (IC50) (read-out: IC50) was 3.7 µM.
The same measure, in the same setting: for `CCCCCCCCc1cc(-c2cccc(C(=O)O)c2)c2ccccc2c1NS(=O)(=O)c1c(C)c(C)cc(C)c1C` [Example 59, 3-[3-octyl-4-[(2,3,5,6-tetramethylphenyl)sulfonylamino]-1-naphthyl]benzoic acid] the value was 46 µM.
Regarding `O=C(O)c1ccc(F)c(-c2ccc(NS(=O)(=O)c3cccc(Cl)c3Cl)c3ccccc23)c1` [Example 74, 3-[4-[(2,3-dichlorophenyl)sulfonylamino]-1-naphthyl]-4-fluoro-benzoic acid], the concentration for half-maximal inhibition (IC50) amounted to 0.9 µM.
Still for that read-out and setting: with `O=C(O)c1cccc(-c2ccc(NS(=O)(=O)c3cccc(Cl)c3Cl)c3ccccc23)c1` [Example 34, 3-[4-[(2,3-dichlorophenyl)sulfonylamino]-1-naphthyl]benzoic acid] the figure was 1.5 µM.
In the case of `Cc1cc(S(=O)(=O)Nc2ccc(-c3cccc(C(=O)O)c3)c3ccccc23)c(Cl)cc1Cl` [Example 14, 3-[4-[(2,4-dichloro-5-methylphenyl)sulfonylamino]-1-naphthyl]benzoic acid], the half-maximal inhibitory concentration (IC50) (read-out: IC50) is 3.8 µM.
As for `Cc1cc(Cl)c(C)c(S(=O)(=O)Nc2ccc(-c3cccc(C(=O)O)c3)c3ccccc23)c1Cl` [Example 57, 3-[4-[(2,5-dichloro-3,6-dimethylphenyl)sulfonylamino]-1-naphthyl]benzoic acid], the IC50 amounted to 0.6 µM.
Regarding `Cc1nn(CC(C)C)cc1S(=O)(=O)Nc1ccc(-c2cccc(C(=O)O)c2)c2ccccc12` [Example 64, 3-[4-[(1-isobutyl-3-methyl-pyrazol-4-yl)sulfonylamino]-1-naphthyl]benzoic acid], the concentration for half-maximal inhibition (IC50) (read-out: IC50) amounted to 4.5 µM.
Same read-out and setting: with `Cn1ccc2c(S(=O)(=O)Nc3ccc(-c4cc(C(=O)O)ccc4F)c4ncccc34)cccc21` [Example 97, 4-fluoro-3-[5-[(1-methylindol-4-yl)sulfonylamino]-8-quinolyl]benzoic acid] the figure was 5.5 µM; with `Cc1ccc(S(=O)(=O)Nc2ccc(-c3cccc(C(=O)O)c3)c3ccccc23)c(Cl)n1` [Example 73, 3-[4-[(2-chloro-6-methyl-3-pyridyl)sulfonylamino]-1-naphthyl]benzoic acid], 7.7 µM.
For `O=C(O)c1ccc(F)c(-c2ccc(NS(=O)(=O)c3cc(F)c(F)cc3Cl)c3ccccc23)c1` [Example 82, 3-[4-[(2-chloro-4,5-difluorophenyl)sulfonylamino]-1-naphthyl]-4-fluorobenzoic acid], for the setting “read-out: IC50”, the 50% inhibitory concentration (IC50) was determined as 5.1 µM.
For the molecule `Cc1ccc2c(NS(=O)(=O)c3c(C)c(C)cc(C)c3C)ccc(-c3cccc(C(=O)O)c3)c2n1` [Example 7, 3-[2-methyl-5-[(2,3,5,6-tetramethylphenyl)sulfonylamino]-8-quinolyl]benzoic acid], the IC50 (read-out: IC50) was 1.1 µM.
On to `O=C(O)c1cccc(-c2ccc(NS(=O)(=O)c3ccc(OC(F)(F)F)c(Cl)c3)c3ccccc23)c1` [Example 38, 3-[4-[[3-chloro-4-(trifluoromethoxy)phenyl]sulfonylamino]-1-naphthyl]benzoic acid], for which the IC50 stood at 6.8 µM.
Turning to `COc1ccc(F)c(S(=O)(=O)Nc2ccc(-c3cc(C(=O)O)ccc3F)c3ccccc23)c1` [Example 91, 4-fluoro-3-[4-[(2-fluoro-5-methoxyphenyl)sulfonylamino]-1-naphthyl]benzoic acid], the concentration for half-maximal inhibition (IC50) (read-out: IC50) was determined as 2.2 µM.
On the same count and under the same terms, with `Cc1c(S(=O)(=O)Nc2ccc(-c3cc(C(=O)O)ccc3F)c3ccccc23)cnn1CC(C)C` [Example 84, 4-fluoro-3-[4-[(1-isobutyl-5-methyl-pyrazol-4-yl)sulfonylamino]-1-naphthyl]benzoic acid] the figure was 1.7 µM; with `O=C(O)c1cccc(-c2ccc(NS(=O)(=O)c3c(F)cccc3F)c3ccccc23)c1` [Example 16, 3-[4-[(2,6-difluorophenyl)sulfonylamino]-1-naphthyl]benzoic acid], 6.5 µM.
As for `O=C(O)c1cccc(-c2ccc(NS(=O)(=O)c3ccc(N4CCOCC4)nc3)c3ccccc23)c1` [Example 36, 3-[4-[(6-morpholino-3-pyridyl)sulfonylamino]-1-naphthyl]benzoic acid], where the note is “read-out: IC50”, the IC50 turned out to be 4.2 µM.
The same measure, in the same setting: with `O=C(O)c1cccc(-c2ccc(NS(=O)(=O)c3ccc4c(c3)OCCO4)c3ccccc23)c1` [Example 55, 3-[4-(2,3-dihydro-1,4-benzodioxin-6-ylsulfonylamino)-1-naphthyl]benzoic acid] the figure was 4.3 µM.
